pIC50: −log10 of the molar value. Structures can show the parent of a compound that is named as a salt.
Columns and labels:
[1] = biological target: BaF3 cells into which JAK2 V617F gene was introduced (Homo sapiens, UniProt O60674, V617F, cells depend on it); assay: Test 2: growth inhibitory action against variant JAK2 expressed cells (MTT method); assay type: cell-based; conditions: incubation for 3 days, triplicate, read-out: concentration of the test material which inhibited 50% of the cell growth (IC50)
Chain of BaF3 cells into which JAK2 V617F gene was introduced (O60674 whole entry V617F): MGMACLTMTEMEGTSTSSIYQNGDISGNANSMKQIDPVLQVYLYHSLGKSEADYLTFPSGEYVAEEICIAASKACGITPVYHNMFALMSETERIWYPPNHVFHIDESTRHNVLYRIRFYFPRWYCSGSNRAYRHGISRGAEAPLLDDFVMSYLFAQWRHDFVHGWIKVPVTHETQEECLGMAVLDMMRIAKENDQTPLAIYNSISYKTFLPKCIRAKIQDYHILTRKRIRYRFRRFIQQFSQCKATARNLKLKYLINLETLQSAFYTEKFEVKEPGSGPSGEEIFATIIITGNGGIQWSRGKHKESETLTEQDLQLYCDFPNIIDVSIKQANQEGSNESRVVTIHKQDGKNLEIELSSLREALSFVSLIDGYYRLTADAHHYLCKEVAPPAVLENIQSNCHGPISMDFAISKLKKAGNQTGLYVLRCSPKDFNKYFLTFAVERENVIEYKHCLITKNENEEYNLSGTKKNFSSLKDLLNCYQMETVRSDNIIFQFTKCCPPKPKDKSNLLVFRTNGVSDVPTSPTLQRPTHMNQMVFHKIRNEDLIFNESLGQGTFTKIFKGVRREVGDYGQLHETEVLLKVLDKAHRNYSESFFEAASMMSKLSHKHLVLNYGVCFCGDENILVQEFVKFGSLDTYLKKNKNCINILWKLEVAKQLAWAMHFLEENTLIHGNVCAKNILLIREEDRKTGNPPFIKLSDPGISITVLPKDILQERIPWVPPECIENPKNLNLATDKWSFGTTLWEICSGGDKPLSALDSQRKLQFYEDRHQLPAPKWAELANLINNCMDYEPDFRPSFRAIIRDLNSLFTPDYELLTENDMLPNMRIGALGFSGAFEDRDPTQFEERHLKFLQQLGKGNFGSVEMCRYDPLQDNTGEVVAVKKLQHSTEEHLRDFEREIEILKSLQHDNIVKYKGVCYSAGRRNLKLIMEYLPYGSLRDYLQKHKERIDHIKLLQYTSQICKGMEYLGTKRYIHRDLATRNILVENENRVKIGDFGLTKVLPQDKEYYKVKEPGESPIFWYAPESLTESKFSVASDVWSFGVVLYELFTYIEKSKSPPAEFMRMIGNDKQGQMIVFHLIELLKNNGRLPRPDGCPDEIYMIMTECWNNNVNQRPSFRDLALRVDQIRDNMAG
Procedure: Test 2: Growth inhibitory action against variant JAK2 expressed cells
BaF3 cells into which JAK2 V617F gene was introduced ([…]) were inoculated on a 96-well plate in an amount of 1×10^3 cells/well and allowed to stand in a CO2 incubator. Next day, the test material was added to the cells. The test material was serially diluted with DMSO to give 10 mM, 6 mM, 3 mM, 1 mM, 600 μM, 300 μM, 100 μM, 60 μM, 30 μM, or 10 μM solution. This was diluted 100 times with distilled water to give 100 μM, 60 μM, 30 μM, 10 μM, 6 μM, 3 μM, 1 μM, 600 nM, 300 nM, or 100 nM solution. This solution of test material was added to the well in an amount of 10 μl/well. As a negative control, 1% DMSO solution was added to the well in an amount of 10 μl/well. In the above operation, the final concentration of the test material became 10 μM, 6 μM, 3 μM, 1 μM, 600 nM, 300 nM, 100 nM, 60 nM, 30 nM, 10 nM, or 0 nM (0.1% DMSO solution). The addition of the test material solution to each well was made in triplicate.
After continuous incubation for 3 days, the viable count was determined by an MTT method. The MTT method was carried out as follows. First, 10 μl each of solution containing 5 mg/ml of MTT (3-(4,5-dimethylthiazol-2-yl)-2,5-diphenyltetrazolium bromide) was added to each well. The plate was allowed to stand in a CO2 incubator for 4 hours, and then 100 μl of 0.04N HCl/2-propanol solution was added to each well to stop the reaction. The generated MTT-formazan was dissolved well with a multi-channel pipette, and the absorbance at 595 nm was measured with reference to that at 655 nm (Thermo Co.; Multiskan FC). Non-linear regression analysis was made by means of a SAS system (SAS Institute Inc.), and the concentration (IC50) of the test material which inhibited 50% of the cell growth was estimated.

[2] = biological target: T1, JAK3 tyrosine kinase (Homo sapiens, UniProt P52333); assay: Test 1: inhibitory activity to JAK3 tyrosine kinase (ELISA); assay type: biochemical; conditions: 25 μM ATP in substrate solution, 30° C. for 1 hour, n=2
T1 construct: purchased Carnabioscience Co
T1 sequence (P52333 1-1124): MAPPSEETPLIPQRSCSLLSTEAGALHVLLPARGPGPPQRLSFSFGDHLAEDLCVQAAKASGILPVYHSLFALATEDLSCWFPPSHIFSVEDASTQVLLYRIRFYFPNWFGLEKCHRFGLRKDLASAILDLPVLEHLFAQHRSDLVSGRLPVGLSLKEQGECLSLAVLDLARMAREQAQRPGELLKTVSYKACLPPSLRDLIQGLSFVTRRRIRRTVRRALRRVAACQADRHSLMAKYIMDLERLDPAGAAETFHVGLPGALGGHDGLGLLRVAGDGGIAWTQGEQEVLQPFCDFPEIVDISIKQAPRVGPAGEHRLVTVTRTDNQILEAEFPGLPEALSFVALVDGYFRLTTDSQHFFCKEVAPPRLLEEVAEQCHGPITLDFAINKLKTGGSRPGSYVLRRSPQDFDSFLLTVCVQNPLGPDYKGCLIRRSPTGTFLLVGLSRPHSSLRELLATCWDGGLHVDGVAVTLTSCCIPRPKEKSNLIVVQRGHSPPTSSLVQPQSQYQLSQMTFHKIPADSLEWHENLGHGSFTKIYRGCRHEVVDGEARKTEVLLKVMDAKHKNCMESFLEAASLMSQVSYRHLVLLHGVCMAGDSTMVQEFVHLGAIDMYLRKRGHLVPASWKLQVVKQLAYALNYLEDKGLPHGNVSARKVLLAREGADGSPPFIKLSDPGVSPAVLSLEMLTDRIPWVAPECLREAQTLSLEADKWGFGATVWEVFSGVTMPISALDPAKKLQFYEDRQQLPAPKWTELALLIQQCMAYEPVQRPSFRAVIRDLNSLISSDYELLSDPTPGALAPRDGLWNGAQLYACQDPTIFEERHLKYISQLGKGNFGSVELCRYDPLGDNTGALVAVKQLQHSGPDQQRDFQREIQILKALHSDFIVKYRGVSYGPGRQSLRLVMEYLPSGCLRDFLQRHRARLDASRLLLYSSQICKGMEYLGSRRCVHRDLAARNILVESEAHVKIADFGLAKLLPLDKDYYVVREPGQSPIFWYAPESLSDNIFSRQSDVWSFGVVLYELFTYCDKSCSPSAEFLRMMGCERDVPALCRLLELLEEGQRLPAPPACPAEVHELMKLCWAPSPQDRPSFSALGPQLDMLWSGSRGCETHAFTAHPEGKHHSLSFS
How it was run: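 ELISA of JAK3 kinase activity with absorbance read at 450 nm. Compounds were tested from DMSO dilution series at 100-fold the measurement concentrations (1000–0.01 μM), diluted up to 20 times in assay buffer, against a DMSO negative control. IC50 was estimated by non-linear regression of absorbance.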

[3] = biological target: T2, JAK2 tyrosine kinase (Homo sapiens, UniProt O60674); assay: Test 1: inhibitory activity to JAK2 tyrosine kinase (ELISA); assay type: biochemical; conditions: 25 μM ATP in substrate solution, 30° C. for 1 hour, n=2
T2 construct: purchased Carnabioscience Co
T2 sequence (O60674 whole entry): as the sequence (O60674 whole entry V617F) above, with F617V counted along it
How it was run: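 Human JAK2 (diluted to 0.75 nM before addition) phosphorylated a biotinylated peptide on streptavidin plates for 1 h at 30 °C. The substrate mix held 625 nM peptide, 25 μM ATP and 25 mM MgCl2 in 15 mM Tris pH 7.5, 0.01% Tween-20 and 1 mM DTT. Phosphotyrosine was detected by HRP antibody/TMB at 450 nm, and IC50 was obtained by non-linear regression; duplicates were run.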

GI50 [1] [nM] | pIC50 [2] | pIC50 [3] | SMILES
94 | 6.96 | 8.92 | C[C@H](Nc1cc(-c2cn[nH]c2)cc(Nc2cnccn2)n1)c1ccc(F)cc1 [Example 28, (S)—N^2-[1-(4-Fluorophenyl)ethyl]-N^6-(pyrazin-2-yl)-4-(1H-pyrazol-4-yl)pyridine-2,6-diamine]
80 | 7.55 | 9.15 | C[C@H](Nc1nc(Nc2cnccn2)cc(N2CCC(NS(C)(=O)=O)C2)n1)c1ccc(F)cc1 (stereo partly drawn) [Example 60, N-(1-{2-[(S)-1-(4-Fluorophenyl)ethylamino]-6-(pyrazin-2-ylamino)pyrimidin-4-yl}pyrrolidin-3-yl)methanesulfonamide hydrochloride]
53 | 7.54 | 9.08 | C[C@H](Nc1nc(Nc2cnccn2)cc(N2CCC(O)C2)n1)c1ccc(F)cc1 (stereo partly drawn) [Example 50, 1-{2-[(S)-1-(4-Fluorophenyl)ethylamino]-6-(pyrazin-2-ylamino)pyrimidin-4-yl}pyrrolidin-3-ol hydrochloride]
64 | 7.17 | 9.16 | C[C@H](Nc1nc(Nc2cnccn2)cc(N2CCC3(CC2)COC(=O)O3)n1)c1ccc(F)cc1 [Example 112, (S)-8-{2-[1-(4-Fluorophenyl)ethylamino]-6-(pyrazin-2-ylamino)pyrimidin-4-yl}-1,3-dioxo-8-azaspiro[4.5]decan-2-one]
55 | 7.68 | 9.16 | C[C@H](Nc1nc(Nc2cnccn2)cc(N2CCOCC2)n1)c1ccc(F)cc1 [Example 20, (S)—N^2-[1-(4-Fluorophenyl)ethyl]-6-morpholino-N^4-(pyrazin-2-yl)pyrimidine-2,4-diamine]
81 | 7.62 | 9.10 | C[C@H](Nc1nc(Nc2cnccn2)cc(N2CCC(C(N)=O)CC2)n1)c1ccc(F)cc1 [Example 56, (S)-1-{2-[1-(4-Fluorophenyl)ethylamino]-6-(pyrazin-2-ylamino)pyrimidin-4-yl}piperidine-4-carboxamide hydrochloride]
70 | 7.59 | 9.41 | C[C@H](Nc1nc(Nc2cnccn2)cc(N2CC(O)(C3CC3)C2)n1)c1ccc(F)cc1 [Example 200, (S)-3-Cyclopropyl-1-{2-[1-(4-fluorophenyl)ethylamino]-6-(pyrazin-2-ylamino)pyrimidin-4-yl}azetidin-3-ol hydrochloride]
93 | 8.05 | 9.57 | C[C@H](Nc1nc(Nc2cnccn2)cc(N2CCN(S(C)(=O)=O)CC2)n1)c1ccc(F)cc1 [Example 65, (S)—N^2-[1-(4-Fluorophenyl)ethyl]-6-[4-(methylsulfonyl)piperazin-1-yl]-N^4-(pyrazin-2-yl)pyrimidine-2,4-diamine hydrochloride]
83 | 7.35 | 9.03 | C[C@H](Nc1nc(Nc2cnccn2)cc(N2CCNC(=O)C2)n1)c1ccc(F)cc1 [Example 1, (S)-4-{2-[1-(4-Fluorophenyl)ethylamino]-6-(pyrazin-2-ylamino)pyrimidin-4-yl}piperazin-2-one]
63 | 6.46 | 8.80 | C[C@H](Nc1cc(C(=O)NCC2CC2)cc(Nc2cnccn2)n1)c1ccc(F)cc1 [Example 167, (S)—N-Cyclopropylmethyl-2-[1-(4-fluorophenyl)ethylamino]-6-(pyrazin-2-ylamino) isonicotinamide]
88 | 7.49 | 9.26 | CC(=O)NCC1CN(c2cc(Nc3cnccn3)nc(N[C@@H](C)c3ccc(F)cc3)n2)C1 [Example 232, (S)—N-[(1-{2-[1-(4-Fluorophenyl)ethylamino]-6-(pyrazin-2-ylamino)pyrimidin-4-yl}azetidin-3-yl)methyl]acetamide]
64 | 7.62 | 9.01 | C[C@H](Nc1nc(Nc2cnccn2)cc(N2CC(N(C)C)C2)n1)c1ccc(F)cc1 [Example 220, (S)-6-[3-(Dimethylamino)azetidin-1-yl]-N^2-[1-(4-fluorophenyl)ethyl]-N^4-(pyrazin-2-yl)pyrimidine-2,4-diamine]
60 | 7.57 | 9.26 | C[C@H](Nc1nc(Nc2cnccn2)cc(N2CCC(O)(CO)CC2)n1)c1ccc(F)cc1 [Example 105, (S)-1-{2-[1-(4-Fluorophenyl)ethylamino]-6-(pyrazin-2-ylamino)pyrimidin-4-yl}-4-(hydroxymethyl)piperidin-4-ol]
70 | 7.37 | 9.31 | CC(=O)N[C@H]1CCN(c2cc(Nc3cnccn3)nc(N[C@@H](C)c3ccc(F)cc3)n2)C1 [Example 2, N-{(S)-1-[2-{[(S)-1-(4-Fluorophenyl)ethyl]amino-}-6-(pyrazin-2-ylamino)pyrimidin-4-yl]pyrrolidin-3-yl}acetamide hydrochloride]
